EC50 and Emax data for 4 molecules are collected here from patent US12679878B2, “CRF2 receptor agonists and their use in therapy” (SANOFI, priority 2020, dated 2026).

Where two headings read alike, the source gives them in different places. Starred links: 1 amine or outer side, 2 acyl side, 3 side chain; linkers in the order of their positions; H or OH if unused. Non-standard residues stand in square brackets, D forms with d. Residues, ends and D or L forms follow the SMILES beside them. Groups on a side chain read outwards from the residue. *: point of attachment. C18 diacid = O=C(O)CCCCCCCCCCCCCCCCC(=O)*; γGlu = O=C(O)[C@H](CCC(=O)[*:2])N[*:1]; AEEA = NCCOCCOCC(=O)O; Aib = CC(C)(N)C(=O)O

What all share (assay type): cell-based
The test system of one experiment is rat CRF2R α receptor. Kind of experiment: cAMP agonism at rat CRF2R α receptor in A7R5 rat aortic smooth muscle cells (Example 8). To be noted: cAMP HTRF, A7R5 rat aortic smooth muscle cell line, 0% HSA. In outline: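 Potency (EC50) is the concentration reaching half-maximal activation, with responses scaled so that 1000 nM urocortin 2 equals 100%. Intracellular cAMP was quantified by homogeneous time-resolved fluorescence at 665/620 nm, 1 h after lysis-buffer reagents. Compound stimulation lasted 30 min at room temperature on 2000 IBMX-treated (2 mM) cells per well in HEPES-buffered HBSS.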
In general terms: TR-FRET usually uses a lanthanide donor and a delayed reading to cut background.

In a further experiment the target is T1, human CRF2α receptor (Homo sapiens, UniProt Q13324).
T1 construct: expressed in transfected cells; host or cells: TeloHEAC
T1 sequence (Q13324 1-411): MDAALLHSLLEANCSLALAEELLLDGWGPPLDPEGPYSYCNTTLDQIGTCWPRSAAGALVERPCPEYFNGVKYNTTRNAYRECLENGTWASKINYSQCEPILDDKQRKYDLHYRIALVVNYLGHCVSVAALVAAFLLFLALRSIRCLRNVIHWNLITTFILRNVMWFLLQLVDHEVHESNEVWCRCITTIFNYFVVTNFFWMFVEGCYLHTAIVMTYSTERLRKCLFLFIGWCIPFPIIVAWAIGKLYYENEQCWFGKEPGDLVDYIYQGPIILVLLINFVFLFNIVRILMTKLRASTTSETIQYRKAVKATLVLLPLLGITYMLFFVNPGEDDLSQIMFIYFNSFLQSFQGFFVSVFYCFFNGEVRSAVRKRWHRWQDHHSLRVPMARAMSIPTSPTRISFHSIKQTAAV
Kind of experiment: cAMP agonism at human CRF2 α receptor in TeloHEAC cells (Example 7). As to conditions: cAMP HTRF, TeloHEAC cells stably expressing human CRF2 α. In outline: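 HTRF ratio 665/620 nm, read 1 h after lysis reagents, reports cAMP. Cells: thawed stocks, 2000/well, 30 min RT with compound in HBSS, 20 mM HEPES, 0 or 0.1% HSA, 2 mM IBMX. Activity normalised to UCN2 1000 nM = 100%; EC50 from half-maximal activation.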

The next experiment deals with T2, CRF1R receptor (Homo sapiens, UniProt P34998).
T2 construct: host or cells: CHO-K1 clone 2
T2 sequence (P34998 24-415): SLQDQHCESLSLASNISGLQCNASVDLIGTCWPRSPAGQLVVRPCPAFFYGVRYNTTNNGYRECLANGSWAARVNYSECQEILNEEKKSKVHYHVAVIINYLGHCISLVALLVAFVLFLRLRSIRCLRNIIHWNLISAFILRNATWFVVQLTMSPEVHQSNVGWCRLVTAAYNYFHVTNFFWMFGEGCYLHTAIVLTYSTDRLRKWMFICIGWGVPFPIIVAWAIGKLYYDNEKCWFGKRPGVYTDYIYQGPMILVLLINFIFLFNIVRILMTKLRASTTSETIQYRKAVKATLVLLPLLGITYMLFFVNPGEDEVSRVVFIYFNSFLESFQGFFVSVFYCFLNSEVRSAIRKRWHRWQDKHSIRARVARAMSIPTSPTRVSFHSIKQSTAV
Kind of experiment: cAMP activity at anti-target CRF1R, CRF1R-overexpression CHO cell line (Example 9). As to conditions: CRF1R-overexpression CHO cell line; for EC50: 0% HSA; for Emax: read-out: Emax (%). The method in brief: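 Using thawed CRF1R-overexpressing CHO cells at 2000 per well, compound is applied for 30 min at RT in HBSS/HEPES buffer with IBMX. Cellular cAMP content is determined via HTRF, and percent activity is calculated against 1000 nM UCN2 defined as 100%.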

[1] abbreviates: 0% HSA, read-out: EC50 [nM], 0% HSA.
The mark [2] stands for this setting: 0.1% HSA, read-out: EC50 [nM], 0.1% HSA.

As to `CC[C@H](C)[C@H](N)C(=O)N[C@H](C(=O)N[C@@H](CC(C)C)C(=O)N[C@@H](CO)C(=O)N[C@@H](CC(C)C)C(=O)N[C@@H](CC(=O)O)C(=O)N[C@H](C(=O)N1CCC[C@H]1C(=O)N[C@H](C(=O)N[C@@H](CCCCN)C(=O)N[C@@H](CC(C)C)C(=O)N[C@@H](CCCCNC(=O)COCCOCCNC(=O)COCCOCCNC(=O)CC[C@H](NC(=O)CCCCCCCCCCCCCCCCC(=O)O)C(=O)O)C(=O)N[C@@H](CCCCN)C(=O)N[C@H](C(=O)N[C@@H](CC(C)C)C(=O)N[C@@H](CC(C)C)C(=O)N[C@@H](CCCCN)C(=O)N[C@@H](CCC(N)=O)C(=O)N[C@@H](CCC(=O)O)C(=O)N[C@@H](CCCNC(=N)N)C(=O)N[C@@H](CCC(N)=O)C(=O)N[C@@H](CCCCN)C(=O)N[C@@H](CCCCN)C(=O)NC(C)(C)C(=O)N[C@@H](CCCNC(=N)N)C(=O)N[C@@H](CCC(=O)O)C(=O)N[C@@H](CCC(N)=O)C(=O)N[C@@H](C)C(=O)N[C@@H](CCC(=O)O)C(=O)N[C@H](C(=O)N[C@@H](CC(N)=O)C(=O)NC(C)(C)C(=O)N[C@@H](CCC(N)=O)C(=O)N[C@H](C(=O)N[C@@H](CC(C)C)C(=O)N[C@@H](C)C(=O)N[C@@H](CCC(N)=O)C(=O)N[C@H](C(N)=O)C(C)C)[C@@H](C)CC)[C@@H](C)O)[C@@H](C)CC)[C@@H](C)CC)C(C)C)C(C)C` [compound 100] (H-IVLSLDVPIKLK([AEEA-AEEA-γGlu-C18 diacid])KILLKQERQKK[Aib]REQAETN[Aib]QILAQV-NH2; N-terminus assumed), the 50% effective concentration (EC50) – broadly, the concentration needed to bring the measured effect to its halfway point – in the experiment on rat CRF2R α receptor was 7.52 nM; on human CRF2α receptor (setting [1]), 0.51 nM; at human CRF2α receptor (setting [2]), 20.5 nM; at CRF1R receptor, over 1000 nM. In addition, the Emax (as a rule, the maximal effect, on the per cent scale that the assay sets) at CRF1R receptor was 5.06%.
For the molecule `CC[C@H](C)[C@H](N)C(=O)N[C@H](C(=O)N[C@@H](CC(C)C)C(=O)N[C@@H](CO)C(=O)N[C@@H](CC(C)C)C(=O)N[C@@H](CC(=O)O)C(=O)N[C@H](C(=O)N1CCC[C@H]1C(=O)N[C@H](C(=O)N[C@@H](CCCCN)C(=O)N[C@@H](CC(C)C)C(=O)N[C@@H](CCCCNC(=O)COCCOCCNC(=O)COCCOCCNC(=O)CC[C@H](NC(=O)CCCCCCCCCCCCCCCCC(=O)O)C(=O)O)C(=O)N[C@@H](CCCCN)C(=O)N[C@H](C(=O)N[C@@H](CC(C)C)C(=O)N[C@@H](CC(C)C)C(=O)N[C@@H](CCCCN)C(=O)N[C@@H](CCC(N)=O)C(=O)N[C@@H](CCC(=O)O)C(=O)N[C@@H](CCCNC(=N)N)C(=O)N[C@@H](CCC(N)=O)C(=O)N[C@@H](CCCCN)C(=O)N[C@@H](CCCCN)C(=O)NC(C)(C)C(=O)N[C@@H](CCCNC(=N)N)C(=O)N[C@@H](CCC(=O)O)C(=O)N[C@@H](CCC(N)=O)C(=O)N[C@@H](C)C(=O)N[C@@H](CCC(=O)O)C(=O)N[C@H](C(=O)N[C@@H](CC(N)=O)C(=O)N[C@@H](CCCCN)C(=O)N[C@@H](CCC(N)=O)C(=O)N[C@H](C(=O)N[C@@H](CC(C)C)C(=O)N[C@@H](CCC(=O)O)C(=O)N[C@@H](CCCNC(=N)N)C(=O)N[C@H](C(N)=O)C(C)C)[C@@H](C)CC)[C@@H](C)O)[C@@H](C)CC)[C@@H](C)CC)C(C)C)C(C)C` [compound 101] (H-IVLSLDVPIKLK([AEEA-AEEA-γGlu-C18 diacid])KILLKQERQKK[Aib]REQAETNKQILERV-NH2; N-terminus assumed), the EC50 in the experiment with rat CRF2R α receptor was 1.02 nM; at human CRF2α receptor (setting [1]), 0.11 nM; on human CRF2α receptor (setting [2]) it was 4.28 nM; on CRF1R receptor it was over 1000 nM. Further, the Emax on CRF1R receptor was -0.34%.
In the case of `CC[C@H](C)[C@H](N)C(=O)N[C@H](C(=O)N[C@@H](CC(C)C)C(=O)N[C@@H](CO)C(=O)N[C@@H](CC(C)C)C(=O)N[C@@H](CC(=O)O)C(=O)N[C@@H](C(=O)N1CCC[C@H]1C(=O)N[C@H](C(=O)NCC(=O)N[C@@H](CC(C)C)C(=O)N[C@@H](CCCCNC(=O)COCCOCCNC(=O)COCCOCCNC(=O)CC[C@H](NC(=O)CCCCCCCCCCCCCCCCC(=O)O)C(=O)O)C(=O)N[C@@H](CCC(N)=O)C(=O)N[C@H](C(=O)N[C@@H](CC(C)C)C(=O)N[C@@H](CC(C)C)C(=O)N[C@@H](CCCCN)C(=O)N[C@@H](CCC(N)=O)C(=O)N[C@@H](CCC(=O)O)C(=O)N[C@@H](CCCNC(=N)N)C(=O)N[C@@H](CCC(N)=O)C(=O)N[C@@H](CCCCN)C(=O)N[C@@H](CCCCN)C(=O)NC(C)(C)C(=O)N[C@@H](CCCNC(=N)N)C(=O)N[C@@H](CCC(=O)O)C(=O)N[C@@H](CCC(N)=O)C(=O)N[C@@H](C)C(=O)N[C@@H](CCC(=O)O)C(=O)N[C@H](C(=O)N[C@@H](CC(N)=O)C(=O)N[C@@H](CCCCN)C(=O)N[C@@H](CCC(N)=O)C(=O)N[C@H](C(=O)N[C@@H](CC(C)C)C(=O)N[C@@H](C)C(=O)N[C@@H](CCC(N)=O)C(=O)N[C@H](C(N)=O)C(C)C)[C@@H](C)CC)[C@@H](C)O)[C@@H](C)CC)[C@@H](C)CC)C(C)C)C(C)C` [compound 147] (H-IVLSLD[dV]PIGLK([AEEA-AEEA-γGlu-C18 diacid])QILLKQERQKK[Aib]REQAETNKQILAQV-NH2; N-terminus assumed), the EC50 in the experiment on rat CRF2R α receptor was 2.53 nM; on human CRF2α receptor (setting [1]) it was 0.18 nM; on human CRF2α receptor (setting [2]) it was 8.17 nM; at CRF1R receptor, over 1000 nM. For the same molecule, the Emax at CRF1R receptor amounted to 4.54%.
As for `CC[C@H](C)[C@H](N)C(=O)N[C@H](C(=O)N[C@@H](CC(C)C)C(=O)N[C@@H](CO)C(=O)N[C@@H](CC(C)C)C(=O)N[C@@H](CC(=O)O)C(=O)N[C@@H](C(=O)N1CCC[C@H]1C(=O)N[C@H](C(=O)NCC(=O)N[C@@H](CC(C)C)C(=O)N[C@@H](CCCCNC(=O)COCCOCCNC(=O)COCCOCCNC(=O)CC[C@H](NC(=O)CCCCCCCCCCCCCCCCC(=O)O)C(=O)O)C(=O)N[C@@H](CCC(N)=O)C(=O)N[C@H](C(=O)N[C@@H](CC(C)C)C(=O)N[C@@H](CC(C)C)C(=O)N[C@@H](CCCCN)C(=O)N[C@@H](CCC(N)=O)C(=O)N[C@@H](CCC(=O)O)C(=O)N[C@@H](CCCNC(=N)N)C(=O)N[C@@H](CCC(N)=O)C(=O)N[C@@H](CCCCN)C(=O)N[C@@H](CCCCN)C(=O)NC(C)(C)C(=O)N[C@@H](CCCNC(=N)N)C(=O)N[C@@H](CCC(=O)O)C(=O)N[C@@H](CCC(N)=O)C(=O)N[C@@H](C)C(=O)N[C@@H](CCC(=O)O)C(=O)N[C@@H](CCCCN)C(=O)N[C@@H](CC(N)=O)C(=O)N[C@@H](CCCCN)C(=O)N[C@@H](CCCNC(=N)N)C(=O)N[C@H](C(=O)N[C@@H](CC(C)C)C(=O)N[C@@H](CCC(=O)O)C(=O)N[C@@H](CCCNC(=N)N)C(=O)N[C@H](C(N)=O)C(C)C)[C@@H](C)CC)[C@@H](C)CC)[C@@H](C)CC)C(C)C)C(C)C` [compound 151] (H-IVLSLD[dV]PIGLK([AEEA-AEEA-γGlu-C18 diacid])QILLKQERQKK[Aib]REQAEKNKRILERV-NH2; N-terminus assumed), the 50% effective concentration (EC50) was 0.49 nM in the experiment on rat CRF2R α receptor, 0.08 nM on human CRF2α receptor (setting [1]), 3.87 nM at human CRF2α receptor (setting [2]) and over 1000 nM on CRF1R receptor. In addition, the Emax at CRF1R receptor was determined as 9.07%.
